The text below walks through data of ChEMBL document CHEMBL3352505, “Pentacycloundecylamines and conjugates thereof as chemosensitizers and reversed chloroquine agents” (Bioorg Med Chem Lett, 2014).

The subject of one data set is CHO. In words: Cytotoxicity against CHO cells by MTT assay. In kind it is cell-based, Cricetulus griseus. To be noted: for IC50: Cricetulus griseus, CHO.
Data set [1] relates to Plasmodium falciparum. Briefly: Antimicrobial activity against chloroquine-resistant Plasmodium falciparum Dd2. The data set is classed as functional.
Data set [2] is described as follows: Selectivity index, ratio of IC50 for CHO cells to IC50 for chloroquine-sensitive Plasmodium falciparum D10. In kind it is toxicity, cell-based. The settings on record: hamster; read-out: Ratio IC50.
The test system of data set [3] is Plasmodium falciparum. In words: Resistance index, ratio of IC50 for chloroquine-resistant Plasmodium falciparum Dd2 to IC50 for chloroquine-sensitive Plasmodium falciparum D10. In kind it is functional.
Data set [4] concerns Plasmodium falciparum. Briefly: Antimicrobial activity against chloroquine-sensitive Plasmodium falciparum D10. In kind it is functional.
In data set [5] the test system is Plasmodium falciparum. In words: Ratio of chloroquine IC50 to compound IC50 for chloroquine-resistant Plasmodium falciparum Dd2. The data set is classed as functional.
The subject of data set [6] is Plasmodium falciparum. In words: Resistance modification index, ratio of IC50 for chloroquine in presence of 1 uM compound to IC50 for chloroquine alone for chloroquine-resistant Plasmodium falciparum Dd2. The data set is classed as functional.
The test system of data set [7] is Plasmodium falciparum. In words: Resistance modification index, ratio of IC50 for chloroquine in presence of 10 uM compound to IC50 for chloroquine alone for chloroquine-resistant Plasmodium falciparum Dd2. The data set is classed as functional.

The term IC50 denotes the midpoint of a concentration-inhibition curve. A lower IC50 goes with inhibition by little substance. Take `CC[C@H]1CN2CCc3cc(OC)c(OC)cc3[C@@H]2C[C@@H]1C[C@H]1NCCc2cc(OC)c(OC)cc21` [EMETINE]: the IC50 in the data set on CHO was determined as 61 nM.
For the molecule `OC12C3C4CC5C6C4C1C6C(C53)N2CCCCNc1ccnc2cc(Cl)ccc12` (configuration not stated), the IC50 with Plasmodium falciparum [1] worked out at 187 nM; with CHO, 2390 nM; with Plasmodium falciparum [4] it was 8.45 nM. Moreover, the selectivity ratio in data set [2] was 283. Moreover, the “Ratio IC50” value in the data set with Plasmodium falciparum [3] stood at 22.
As for `OC12C3C4CC5C6C4C1C6C(C53)N2CCNc1ccnc2cc(Cl)ccc12` (configuration not stated), the IC50 was found to be 27.6 nM in the data set on Plasmodium falciparum [1], 9540 nM in the data set on CHO and 3.74 nM in the data set on Plasmodium falciparum [4]. Also, in data set [2], the selectivity ratio was 2550. Moreover, the “Ratio IC50” value in the data set on Plasmodium falciparum [3] turned out to be 7; with Plasmodium falciparum [5], 5.
Regarding `c1ccc(CNC23OC4C5C6CC(C7C6C4C72)C53)cc1` (configuration not stated), the IC50 in the data set on Plasmodium falciparum [1] and in the data set on Plasmodium falciparum [4] was greater than 2000 nM in each case. Besides, in the data set with CHO (chinese hamster, cho), the Activity entry is recorded as “Non-toxic”. Further, the entries for the “Ratio IC50” value with Plasmodium falciparum [6] and in the data set with Plasmodium falciparum [7] were 0.6 and 0.48, respectively.
As for `OC12C3C4CC5C6C4C1C6C(C53)N2CCCCCCNc1ccnc2cc(Cl)ccc12` (configuration not stated), the IC50 with Plasmodium falciparum [1] came to 253 nM; in the data set on CHO, 2630 nM; in the data set with Plasmodium falciparum [4], 17.6 nM. Besides, the selectivity ratio in data set [2] amounted to 149. In addition, the “Ratio IC50” value in the data set with Plasmodium falciparum [3] worked out at 14.
